Several values for one entry are separate records, joined by “and”; a condition that tells them apart may be missing. Equal values may be shown once. Toxic doses and inconclusive results are not listed.
Tested on: L1210 leukemia ip in BDF1 mice, survival T/C
Experiment: NCI In Vivo Anticancer Drug Screen. Data for tumor model L1210 Leukemia (intraperitoneal) in B6D2F1 (BDF1) mice
Conditions: endpoint: mean survival time, higher = longer survival
Summary of the method: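 Antitumor effect is assessed in tumor-bearing animals. Survival in the compound arm is compared with a vehicle-dosed control arm and expressed as their quotient.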

[1] = dose: 12.5 mg/kg/injection, schedule: Q04DX003 (ip), vehicle: saline with Tween-80
[2] = dose: 50.0 mg/kg/injection, schedule: Q04DX003 (ip), vehicle: saline with Tween-80
[3] = dose: 100.0 mg/kg/injection, schedule: Q01DX001 (ip), vehicle: saline
[4] = dose: 100.0 mg/kg/injection, schedule: Q01DX009 (ip), vehicle: Klucel (hydroxypropylcellulose) (HPC)
[5] = dose: 100.0 mg/kg/injection, schedule: Q01DX009 (ip), vehicle: saline with Tween-80
[6] = dose: 100.0 mg/kg/injection, schedule: Q04DX003 (ip), vehicle: Klucel (hydroxypropylcellulose) (HPC)
[7] = dose: 100.0 mg/kg/injection, schedule: Q04DX003 (ip), vehicle: saline with Tween-80
[8] = dose: 200.0 mg/kg/injection, schedule: Q01DX001 (ip), vehicle: saline
[9] = dose: 200.0 mg/kg/injection, schedule: Q01DX009 (ip), vehicle: Klucel (hydroxypropylcellulose) (HPC)
[10] = dose: 200.0 mg/kg/injection, schedule: Q01DX009 (ip), vehicle: saline with Tween-80
[11] = dose: 200.0 mg/kg/injection, schedule: Q04DX003 (ip), vehicle: Klucel (hydroxypropylcellulose) (HPC)
[12] = dose: 200.0 mg/kg/injection, schedule: Q04DX003 (ip), vehicle: saline with Tween-80
[13] = dose: 400.0 mg/kg/injection, schedule: Q01DX001 (ip), vehicle: saline
[14] = dose: 400.0 mg/kg/injection, schedule: Q01DX009 (ip), vehicle: saline with Tween-80
[15] = dose: 400.0 mg/kg/injection, schedule: Q04DX003 (ip), vehicle: saline with Tween-80
[16] = dose: 50.0 mg/kg/injection, schedule: Q01DX009 (ip), vehicle: saline with Tween-80
[17] = dose: 100.0 mg/kg/injection, schedule: Q04DX003 (ip), vehicle: saline

## COc1ccc(CCNC(=O)Cc2ccc(OC)c(OC)c2)cc1OC
[1]
  T/C: 94 % of control
dose: 25.0 mg/kg/injection, schedule: Q04DX003 (ip), vehicle: saline with Tween-80
  T/C: 110 % of control
[2]
  T/C: 100 % of control
[3]
  T/C: 98 % of control
[4]
  T/C: 94 % of control
dose: 100.0 mg/kg/injection, schedule: Q01DX009 (ip), vehicle: saline sonified
  T/C: 100 % of control
[5]
  T/C: 86 % of control
[6]
  T/C: 105 % of control
[7]
  T/C: 107 % of control
[8]
  T/C: 92 % of control
[9]
  T/C: 96 % of control
dose: 200.0 mg/kg/injection, schedule: Q01DX009 (ip), vehicle: saline sonified
  T/C: 100 % of control
[10]
  T/C: 95 % of control
[11]
  T/C: 112 % of control
[12]
  T/C: 94 % of control
[13]
  T/C: 93 % of control
dose: 400.0 mg/kg/injection, schedule: Q01DX009 (ip), vehicle: Klucel (hydroxypropylcellulose) (HPC)
  T/C: 98 % of control
dose: 400.0 mg/kg/injection, schedule: Q01DX009 (ip), vehicle: saline sonified
  T/C: 90 % of control
[14]
  T/C: 91 % of control
dose: 400.0 mg/kg/injection, schedule: Q04DX003 (ip), vehicle: Klucel (hydroxypropylcellulose) (HPC)
  T/C: 104 % of control
[15]
  T/C: 92 % of control

## O=C(O)C12CCC(CC1)CC2
dose: 75.0 mg/kg/injection, schedule: Q01DX009 (ip), vehicle: saline
  T/C: 100 % of control
[3]
  T/C: 93 % of control
dose: 150.0 mg/kg/injection, schedule: Q01DX009 (ip), vehicle: saline
  T/C: 103 % of control
[8]
  T/C: 88 % of control
dose: 300.0 mg/kg/injection, schedule: Q01DX009 (ip), vehicle: saline
  T/C: 100 % of control
[13]
  T/C: 90 % of control

## O=C1NC(=O)c2ncccc21
[5]
  T/C: 90 % of control
[7]
  T/C: 87 % of control
[10]
  T/C: 95 % of control
[12]
  T/C: 103 % of control
[14]
  T/C: 97 % of control
[15]
  T/C: 100 % of control

## CCOC(=O)C(=Cc1ccccc1Cl)C(=O)OCC
[4]
  T/C: 88 % of control
[6]
  T/C: 104 % of control
[9]
  T/C: 99 % of control
[11]
  T/C: 90 % of control

## Nc1nc(Cl)c2[nH]cnc2n1
dose: 0.25 mg/kg/injection, schedule: Q01DX009 (ip), vehicle: saline with Tween-80
  T/C: 110 % of control
dose: 0.5 mg/kg/injection, schedule: Q01DX009 (ip), vehicle: saline with Tween-80
  T/C: 112 % of control
dose: 1.0 mg/kg/injection, schedule: Q01DX009 (ip), vehicle: saline with Tween-80
  T/C: 117 % of control
dose: 6.0 mg/kg/injection, schedule: Q01DX009 (ip), vehicle: saline with Tween-80
  T/C: 150 % of control
dose: 8.8 mg/kg/injection, schedule: Q04DX003 (ip), vehicle: saline with Tween-80
  T/C: 112 % of control
dose: 13.0 mg/kg/injection, schedule: Q01DX009 (ip), vehicle: Klucel (hydroxypropylcellulose) (HPC)
  T/C: 99 % of control
dose: 20.0 mg/kg/injection, schedule: Q01DX009 (ip), vehicle: Klucel (hydroxypropylcellulose) (HPC)
  T/C: 101 % of control
dose: 30.0 mg/kg/injection, schedule: Q01DX009 (ip), vehicle: Klucel (hydroxypropylcellulose) (HPC)
  T/C: 101 % of control
dose: 30.0 mg/kg/injection, schedule: Q04DX003 (ip), vehicle: saline with Tween-80
  T/C: 195 % of control
dose: 37.5 mg/kg/injection, schedule: Q04DX009 (ip), vehicle: Klucel (hydroxypropylcellulose) (HPC)
  T/C: 94 % of control
dose: 44.0 mg/kg/injection, schedule: Q01DX009 (ip), vehicle: Klucel (hydroxypropylcellulose) (HPC)
  T/C: 100 % of control
[16]
  T/C: 107 % of control
dose: 66.0 mg/kg/injection, schedule: Q01DX009 (ip), vehicle: Klucel (hydroxypropylcellulose) (HPC)
  T/C: 104 % of control
dose: 75.0 mg/kg/injection, schedule: Q04DX009 (ip), vehicle: Klucel (hydroxypropylcellulose) (HPC)
  T/C: 104 % of control
[5]
  T/C: 124 % of control
dose: 150.0 mg/kg/injection, schedule: Q04DX009 (ip), vehicle: Klucel (hydroxypropylcellulose) (HPC)
  T/C: 97 % of control

## CC12CCC(F)(CC1)CC2=O
dose: 100.0 mg/kg/injection, schedule: Q04DX002 (ip), vehicle: saline
  T/C: 98 % of control
dose: 200.0 mg/kg/injection, schedule: Q04DX002 (ip), vehicle: saline
  T/C: 98 % of control
dose: 400.0 mg/kg/injection, schedule: Q04DX002 (ip), vehicle: saline
  T/C: 102 % of control

## OCCCCCc1ccccc1
dose: 100.0 mg/kg/injection, schedule: Q01DX009 (ip), vehicle: other
  T/C: 105 % of control
[17]
  T/C: 92 % of control
dose: 200.0 mg/kg/injection, schedule: Q01DX009 (ip), vehicle: other
  T/C: 102 % of control
dose: 200.0 mg/kg/injection, schedule: Q04DX003 (ip), vehicle: saline
  T/C: 101 % of control
dose: 400.0 mg/kg/injection, schedule: Q01DX009 (ip), vehicle: other
  T/C: 102 % of control
dose: 400.0 mg/kg/injection, schedule: Q04DX003 (ip), vehicle: saline
  T/C: 90 % of control

## CCC1(CC)C=CC(Br)CC1(CC)CC (centres undefined)
[7]
  T/C: 103 % of control
[12]
  T/C: 101 % of control
[15]
  T/C: 101 % of control

## CC(C)=NNC(=O)c1ccccc1
[1]
  T/C: 94 % of control
[16]
  T/C: 110 % of control
[2]
  T/C: 96 % of control
[5]
  T/C: 113 % of control
[7]
  T/C: 108 % of control and 110 % of control
[12]
  T/C: 124 % of control
[15]
  T/C: 96 % of control

## c1nc([N+]23CCC(CC2)CC3)c2[nH]cnc2n1
dose: 5.0 mg/kg/injection, schedule: Q01DX001 (ip), vehicle: saline
  T/C: 111 % of control
dose: 10.0 mg/kg/injection, schedule: Q01DX001 (ip), vehicle: saline
  T/C: 103 % of control
dose: 20.0 mg/kg/injection, schedule: Q01DX001 (ip), vehicle: saline
  T/C: 113 % of control
dose: 40.0 mg/kg/injection, schedule: Q01DX001 (ip), vehicle: saline
  T/C: 97 % of control
dose: 80.0 mg/kg/injection, schedule: Q01DX001 (ip), vehicle: saline
  T/C: 108 % of control

## O=[N+]([O-])c1ccc(-n2ncc3cccnc32)c([N+](=O)[O-])c1
dose: 75.0 mg/kg/injection, schedule: Q01DX001 (ip), vehicle: other
  T/C: 94 % of control
dose: 150.0 mg/kg/injection, schedule: Q01DX001 (ip), vehicle: other
  T/C: 100 % of control
dose: 300.0 mg/kg/injection, schedule: Q01DX001 (ip), vehicle: other
  T/C: 90 % of control

## COP(=O)(OC)OCc1cnc(SC)nc1N
dose: 25.0 mg/kg/injection, schedule: Q01DX009 (ip), vehicle: saline
  T/C: 100 % of control
dose: 25.0 mg/kg/injection, schedule: Q04DX003 (ip), vehicle: saline
  T/C: 100 % of control
dose: 50.0 mg/kg/injection, schedule: Q01DX009 (ip), vehicle: saline
  T/C: 102 % of control
dose: 50.0 mg/kg/injection, schedule: Q04DX003 (ip), vehicle: saline
  T/C: 105 % of control
dose: 100.0 mg/kg/injection, schedule: Q01DX009 (ip), vehicle: saline
  T/C: 98 % of control
[17]
  T/C: 101 % of control and 102 % of control

## Cc1ccc(Cl)c(OCc2cc(=O)[nH]c(=O)[nH]2)c1
dose: 10.0 mg/kg/injection, schedule: Q04DX003 (ip), vehicle: saline with Tween-80
  T/C: 101 % of control
dose: 20.0 mg/kg/injection, schedule: Q04DX003 (ip), vehicle: saline with Tween-80
  T/C: 92 % of control
dose: 40.0 mg/kg/injection, schedule: Q04DX003 (ip), vehicle: saline with Tween-80
  T/C: 95 % of control

## O=C1C(Cl)=C(N2CC2)C(=O)c2ccccc21
dose: 2.5 mg/kg/injection, schedule: Q01DX009 (ip), vehicle: Klucel (hydroxypropylcellulose) (HPC)
  T/C: 107 % of control
dose: 5.0 mg/kg/injection, schedule: Q01DX009 (ip), vehicle: Klucel (hydroxypropylcellulose) (HPC)
  T/C: 93 % of control

## O=C(N/N=C/c1[nH]c(=S)[nH]c(=O)c1Cc1ccc(Cl)cc1)c1ccccc1
dose: 100.0 mg/kg/injection, schedule: Q01DX001 (ip), vehicle: saline with Tween-80
  T/C: 96 % of control
dose: 200.0 mg/kg/injection, schedule: Q01DX001 (ip), vehicle: saline with Tween-80
  T/C: 92 % of control
dose: 400.0 mg/kg/injection, schedule: Q01DX001 (ip), vehicle: saline with Tween-80
  T/C: 123 % of control

Source: PubChem BioAssay AID248 (DTP/NCI, 2004)
